Read-outs that look alike come from different tables or passages of the source.
Columns and labels:
rh-BuChE = rh-BuChE (Homo sapiens, UniProt P06276); assay: IC50 rh-BuChE; type: biochemical
AChE [1] = molecular target: T1, AChE (Homo sapiens, UniProt P22303); assay: AChE inhibition, general statements; type: biochemical
erythrocyte h-AChE = molecular target: T2, erythrocyte h-AChE (Homo sapiens, UniProt P22303); assay: IC50 erythrocyte h-AChE; type: biochemical
T2 construct: from tissue; host or cells: human erythrocytes
T2 sequence (P22303 32-617 isoform P22303-2 limits assumed): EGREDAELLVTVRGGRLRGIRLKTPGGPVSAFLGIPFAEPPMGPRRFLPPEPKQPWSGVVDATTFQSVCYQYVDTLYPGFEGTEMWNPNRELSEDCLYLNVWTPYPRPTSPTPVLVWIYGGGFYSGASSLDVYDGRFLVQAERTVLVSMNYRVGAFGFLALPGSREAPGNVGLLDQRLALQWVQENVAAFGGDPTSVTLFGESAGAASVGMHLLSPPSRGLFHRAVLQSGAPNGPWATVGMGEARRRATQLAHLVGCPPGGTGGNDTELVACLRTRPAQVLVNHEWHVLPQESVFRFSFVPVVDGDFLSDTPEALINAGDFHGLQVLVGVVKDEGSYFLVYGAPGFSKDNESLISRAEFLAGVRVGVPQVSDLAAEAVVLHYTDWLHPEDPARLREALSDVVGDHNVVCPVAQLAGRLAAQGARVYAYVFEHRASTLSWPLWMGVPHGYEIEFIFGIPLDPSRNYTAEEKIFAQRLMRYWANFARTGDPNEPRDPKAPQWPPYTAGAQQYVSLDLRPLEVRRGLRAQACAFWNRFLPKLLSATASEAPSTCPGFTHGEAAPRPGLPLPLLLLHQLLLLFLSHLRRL

rh-AChE = rh-AChE (Homo sapiens, UniProt P22303); assay: biochemical; details: read-out: IC50 rh-AChE
Chain of rh-AChE (P22303 32-614): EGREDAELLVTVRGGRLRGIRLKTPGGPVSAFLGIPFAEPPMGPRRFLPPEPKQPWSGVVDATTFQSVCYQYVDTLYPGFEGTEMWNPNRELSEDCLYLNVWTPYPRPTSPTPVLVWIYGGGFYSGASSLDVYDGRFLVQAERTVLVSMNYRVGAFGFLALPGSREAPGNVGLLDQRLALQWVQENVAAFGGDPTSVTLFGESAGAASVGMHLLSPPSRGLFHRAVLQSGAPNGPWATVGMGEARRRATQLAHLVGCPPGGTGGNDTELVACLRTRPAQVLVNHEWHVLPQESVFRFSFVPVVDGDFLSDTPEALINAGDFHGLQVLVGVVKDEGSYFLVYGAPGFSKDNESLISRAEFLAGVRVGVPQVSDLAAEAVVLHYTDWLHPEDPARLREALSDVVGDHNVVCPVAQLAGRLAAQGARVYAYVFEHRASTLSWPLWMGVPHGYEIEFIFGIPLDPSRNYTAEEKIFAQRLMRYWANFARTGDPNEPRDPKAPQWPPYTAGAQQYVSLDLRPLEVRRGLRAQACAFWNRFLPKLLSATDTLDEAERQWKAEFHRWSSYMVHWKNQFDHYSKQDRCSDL

AChE [2] = molecular target: T1, AChE; details: Camps et al.; cited from earlier work
[3] = read-out: IC50 erythrocyte h-AChE

Chain of rh-BuChE (P06276 29-602): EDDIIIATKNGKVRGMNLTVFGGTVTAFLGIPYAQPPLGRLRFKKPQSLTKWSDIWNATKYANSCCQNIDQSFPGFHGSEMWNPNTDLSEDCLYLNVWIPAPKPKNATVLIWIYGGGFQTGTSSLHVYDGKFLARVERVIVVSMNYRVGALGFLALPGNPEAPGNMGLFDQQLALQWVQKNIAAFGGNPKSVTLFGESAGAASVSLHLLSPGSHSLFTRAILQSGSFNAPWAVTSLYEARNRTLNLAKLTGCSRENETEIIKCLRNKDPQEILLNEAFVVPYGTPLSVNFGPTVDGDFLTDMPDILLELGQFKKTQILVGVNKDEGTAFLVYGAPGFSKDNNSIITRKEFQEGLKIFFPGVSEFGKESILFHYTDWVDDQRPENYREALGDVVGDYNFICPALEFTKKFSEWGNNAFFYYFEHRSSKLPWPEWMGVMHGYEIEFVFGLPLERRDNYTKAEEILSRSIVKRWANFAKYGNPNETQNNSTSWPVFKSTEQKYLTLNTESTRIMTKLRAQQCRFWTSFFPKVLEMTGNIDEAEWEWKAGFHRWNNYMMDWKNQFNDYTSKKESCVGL
T1 sequence (P22303 32-614): as the sequence (P22303 32-614) above

Row | SMILES | IC50 (rh-BuChE; read-out: IC50 rh-BuChE) | activity compared with Huprine X (AChE [1]) | IC50 (erythrocyte h-AChE; [3]) | IC50 (rh-AChE) | IC50 (rh-BuChE) | IC50 (erythrocyte h-AChE) | IC50 (AChE [2])
1 | Nc1c2c(nc3cc(Cl)ccc13)CC1C=C(CCO)CC2C1 (centres unmarked) [HUP 2, 2-(12-Amino-3-chloro-6,7,10,11-tetrahydro-7,11-methanocycloocta[b]quinolin-9-yl) Ethanol] | 1240 nM | as high as the Huprine X | 6.15 nM | 1.05 ± 0.13 nM | – | – | –
2 | C=CC(=O)OCCC1=CC2Cc3nc4cc(Cl)ccc4c(N)c3C(C1)C2 (centres unmarked) [HUP 18, 2-(12-Amino-3-chloro-6,7,10,11-tetrahydro-7,11-methanocycloocta[b]quinolin-9-yl)ethyl Acrylate] | 207 ± 16 nM | – | 129 nM | 20.4 ± 4.6 nM | – | – | –
3 | CCOC(=O)C(CCC1=CC2Cc3nc4cc(Cl)ccc4c(N)c3C(C1)C2)C(=O)OCC (centres unmarked) [HUP 27, Diethyl[2-(12-Amino-3-chloro-6,7,10,11-tetrahydro-7,11-methanocycloocta[b]quinolin-9-yl)ethyl]malonate] | – | – | – | 6.09 ± 0.42 nM | 319 ± 2 nM | 46.4 nM | –
4 | COC(=O)CCCC1=CC2Cc3nc4cc(Cl)ccc4c(N)c3C(C1)C2 (centres unmarked) [HUP 29, Methyl 4-(12-Amino-3-chloro-6,7,10,11-tetrahydro-7,11-methanocycloocta[b]quinolin-9-yl)butanoate] | – | – | – | 14.6 ± 1.7 nM | 124 ± 11 nM | 37.6 nM | –
5 | Nc1c2c(nc3cc(Cl)ccc13)CC1C=C(CCCCO)CC2C1 (centres unmarked) [HUP 30, 4-(12-Amino-3-chloro-6,7,10,11-tetrahydro-7,11-methanocycloocta[b]quinolin-9-yl)butan-1-ol] | 343 ± 43 nM | – | 50.1 nM | 22.4 ± 1.5 nM | – | – | –
6 | CS(=O)(=O)OCCCCC1=CC2Cc3nc4cc(Cl)ccc4c(N)c3C(C1)C2 (centres unmarked) [HUP 31, 4-(12-Amino-3-chloro-6,7,10,11-tetrahydro-7,11-methanocycloocta[b]quinolin-9-yl)butyl Methanesulfonate] | 243 ± 12 nM | – | 13.3 nM | 4.76 ± 1.68 nM | – | – | –
7 | [N-]=[N+]=NCCCCC1=CC2Cc3nc4cc(Cl)ccc4c(N)c3C(C1)C2 (centres unmarked) [HUP 32, 9-(4-Azidobutyl)-3-chloro-6,7,10,11-tetrahydro-7,11-methanocycloocta[b]quinolin-12-amine] | 260 ± 12 nM | – | 68.1 nM | 13.1 ± 4.7 nM | – | – | –
8 | COC(=O)c1cn(CCCCC2=CC3Cc4nc5cc(Cl)ccc5c(N)c4C(C2)C3)nn1 (centres unmarked) [HUP 33, Methyl 1-[4-(12-Amino-3-chloro-6,7,10,11-tetrahydro-7,11-methanocycloocta[b]quinolin-9-yl)butyl]-1H-1,2,3-triazole-4-carboxylate] | 291 ± 25 nM | – | 10.7 nM | 0.34 ± 0.12 nM | – | – | –
9 | Nc1c2c(nc3cc(Cl)ccc13)CC1C=C(CCCCn3cc(CO)nn3)CC2C1 (centres unmarked) [HUP 34, {1-[4-(12-Amino-3-chloro-6,7,10,11-tetrahydro-7,11-methanocycloocta[b]quinolin-9-yl)butyl]-1H-1,2,3-triazol-4-yl}methanol Trifluoroacetic Acid] | 213 ± 18 nM | – | 6.91 nM | 0.26 ± 0.08 nM | – | – | –
10 | CCC1=CC2Cc3nc4cc(Cl)ccc4c(N)c3[C@@H](C1)C2 [Huprine X] | – | – | – | – | – | – | ~1 nM

From patent US9040506B2, “7,11-methanocycloocta [B] quinoline derivative as highly functionalizable acetylcholinesterase inhibitors” (priority 2010, dated 2015)
